Results: PMC13013135, “[^99mTc]Tc-PSMA-HSG for PSMA-targeted Hybrid Surgical Guidance: a new addition to the PSMA-I&S/I&T family” (European Journal of Nuclear Medicine and Molecular Imaging, 2025)

Assays:
[1] = Photophysical characterization; type: physicochemical; details: in a 5% human serum albumin solution
Procedure: The determination of the quantum yield and molar extinction coefficient of PSMA-HSG were performed according to previously published procedures.
Of the free dye HOOC-(SO3)Cy5(SO3)-Methyl (Sulfo-Cy5), a 100 µM stock solution in PBS was prepared. From this, a dilution series comprising the following concentrations was prepared: 7.5 µM, 5 µM, 2.5 µM, 1 µM, 0.75 µM, 0.5 µM, 0.25 µM. Of these solutions, absorption spectra (n=3 per concentration) were recorded using a Shimadzu UV-1280 spectrometer (Shimadzu, Kyoto, Japan). The concentrations were plotted against the mean of the maximum absorbance per concentration. A trendline was fitted, with the regression coefficient x 10^6 representing the molar extinction coefficient (R^2 ≥ 0.9900) in M^-1.L^-1.cm^-1.
The brightness in (M^-1.L^-1.cm^-1) was calculated using the following formula:
Brightness =Quantum yield hybrid label*Molar extinction coefficient free dye

[2] = system: LNCaP cells; assay: Fluorescence microscopy of ligand internalization; type: cell-based, human; details: 100 nM
Procedure: Competitive binding experiments (IC50) were carried out in accordance with an established protocol using PSMA-expressing LNCaP cells and ([^125I]I-BA)KuE as standard radioligand. Internalization kinetics of [^99mTc]Tc-PSMA-HSG (0.5 nM) were investigated in a dual tracer internalization assay using PSMA expressing LNCaP cells and ([^125I]I-BA)KuE (0.1 nM) as an internal reference. Non-specific binding/internalization was determined in the presence of 10 µM 2-PMPA. Furthermore, PSMA-HSG internalization into LNCaP cells was investigated using fluorescence microscopy (100 nM PSMA-HSG). Please see the Supplementary Material for experimental details.
Two days prior to the experiment, LNCaP cells (approximately 100.000 cells/well) were seeded on round glass coverslips placed in the bottoms of the wells of 24-well plates. After cell adhesion and expansion, the culture medium was removed by aspiration, and the cells were washed with HBSS (1% BSA). […]
Fluorescence images were acquired on a Zeiss Axio Observer Z1 inverted microscope using a Plan Apochromat 20x, N.A. 0.8, air, DIC objective or a Plan Apochromat 63x, N.A. 1.4, oil, DIC objective. […] Fluorescence illumination was provided by an X-Cite fluorescence lamp. […]

[3] = system: PC3-Pip xenografts in NSG mice; assay: Fluorescence imaging in mice with clinical-grade fluorescence endoscope; type: in vivo, mouse
Procedure: Fluorescence imaging of PC3-Pip xenografts in NSG mice (2 h p.i. at a PSMA-HSG dose of 1 nmol and 6 h p.i. at a ligand dose of 0.1 nmol, respectively; n = 1 per compound and condition) was performed using a clinical-grade fluorescence laparoscopy set-up (KARL STORZ Endoskope GMBh & Co. KG). Cy5-based tumor imaging was performed using D-light P system and a prototype modified IMAGE 1 S light source with integrated Cy5 filter (both KARL STORZ Endoskope GMBh & Co. KG). Images were recorded using integrated KARL STORZ software and image processing was performed using custom MATLAB software that provided a signal intensity-based representation of the signal-to-background ratio (SBR; [45, 46]).
PC-3 PIP xenografts were established by subcutaneous injection of 5 × 10^6 PC3-PIP cells/mouse using 8–12-week-old male NSG mice (in-house breeding, Dpt. of Oncology, University of Lausanne) as previously described. Tumors reached a size of 4-8 mm in diameter after 5-6 days and were then immediately used for the fluorescence imaging studies.

[4] = system: PC3-Pip tumor slices; assay: Confocal fluorescence imaging of excised tumor specimens; type: in vivo, mouse
Procedure: After in vivo imaging, the tumors (n = 1 per condition) were excised and cut into 2 mm slices. Prior to imaging, slices were placed on a 35-mm culture dish containing a glass insert (MatTek Co.). Fluorescence confocal imaging was then performed using a Leica SP8 WLL microscope (Leica Microsystems). For assessment of tracer uptake Cy5 settings were used; λex = 633 nm, λem = 650–700 nm. Images were processed using accompanying LASX software (Leica Application Software Suite 4.8).

[5] = system: PSMA expressing LNCaP cells; set-up: method as in PMID 27635024, PMID 30237214; details: 60 min, 37 °C, normalized to ([^125I]IBA)KuE; cited from earlier work
[6] = biological target: PSMA (Homo sapiens, UniProt Q04609); set-up: Five patients with a diagnosis of initial (n = 4) or biochemical recurrence of (n = 1) histologically proven prostate cancer; from tissue; host or cells: prostate cancer patients: primary tumour, lymph nodes, resected tissue sections; method as in PMID 27635024, PMID 30237214; details: LNCaP cells, identical experimental conditions; cited from earlier work
Sequence of PSMA (Q04609 whole entry): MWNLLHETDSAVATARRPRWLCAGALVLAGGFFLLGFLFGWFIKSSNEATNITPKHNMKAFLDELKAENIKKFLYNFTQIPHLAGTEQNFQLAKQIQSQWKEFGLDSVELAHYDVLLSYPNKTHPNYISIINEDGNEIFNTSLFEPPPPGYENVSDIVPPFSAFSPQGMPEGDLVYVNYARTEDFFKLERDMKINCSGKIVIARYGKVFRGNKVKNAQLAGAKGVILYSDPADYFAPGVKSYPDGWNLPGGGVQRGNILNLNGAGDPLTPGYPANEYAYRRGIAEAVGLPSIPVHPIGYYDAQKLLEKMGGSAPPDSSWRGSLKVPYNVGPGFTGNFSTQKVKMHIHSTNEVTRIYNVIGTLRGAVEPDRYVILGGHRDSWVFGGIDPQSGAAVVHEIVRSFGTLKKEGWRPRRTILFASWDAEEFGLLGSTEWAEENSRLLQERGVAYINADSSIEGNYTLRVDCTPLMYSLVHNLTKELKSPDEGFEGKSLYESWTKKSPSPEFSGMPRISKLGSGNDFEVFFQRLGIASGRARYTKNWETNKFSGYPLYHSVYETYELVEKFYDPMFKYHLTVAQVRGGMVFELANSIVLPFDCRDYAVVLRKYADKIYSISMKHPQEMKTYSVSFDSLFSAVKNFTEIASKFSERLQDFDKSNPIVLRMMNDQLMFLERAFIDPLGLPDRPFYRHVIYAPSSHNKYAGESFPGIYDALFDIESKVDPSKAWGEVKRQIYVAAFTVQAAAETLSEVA

CC(=O)SCC(=O)N[C@H](CO)C(=O)N[C@H](CO)C(=O)N[C@H](CO)C(=O)N[C@H](CCCCNC(=O)CCCCCN1/C(=C/C=C/C=C/C2=[N+](C)c3ccc(S(=O)(=O)[O-])cc3C2(C)C)C(C)(C)c2cc(S(=O)(=O)O)ccc21)C(=O)N[C@H](Cc1ccc(O)cc1)C(=O)N[C@H](Cc1ccc2ccccc2c1)C(=O)N[C@H](CCCCNC(=O)CCCCCCC(=O)NCCCC[C@H](NC(=O)N[C@@H](CCC(=O)O)C(=O)O)C(=O)O)C(=O)O [PSMA-HSG]
quantum yield [1]: 26%
membrane binding, fluorescence microscopy ([2]; 30 min, 4 °C): intense and PSMA-specific membrane staining
internalization, fluorescence microscopy ([2]; 60 min, 37 °C): efficient ligand translocation into the cells
in vivo tumor fluorescence, Cy5 fluorescence endoscope ([3]; 0.1 nmol, 6 h p.i.): only a weak fluorescence signal
in vivo tumor fluorescence, Cy5 fluorescence endoscope ([3]; 1 nmol, 2 h p.i.): high relative PSMA-HSG fluorescence intensity
confocal fluorescence microscopy of tumor slices ([4]; 2 h p.i./1 nmol): strong and homogenous PSMA-HSG fluorescence
confocal fluorescence microscopy of tumor slices ([4]; 6 h p.i./0.1 nmol (low dose/late timepoint)): detectable, but weak fluorescence signal

O=C(O)CC[C@H](NC(=O)NC(CCCCNC(=O)c1ccc([125I])cc1)C(=O)O)C(=O)O (stereo partly drawn) [([^125I]IBA)KuE]
internalization [% of reference] [5]: 100 % of reference

PSMA-I&S: non-fluorescent parent compound, unlabeled
IC50 [6]: 39.7 ± 1.2 nM
